We go through 17 molecules from patent US4967772A, “Tobacco smoking article and treatment of tobacco smoke with at least one alcohol” (C.A. Blockers, Inc., priority 1987, dated 1990).

Data set [1] concerns nitrosamine localization. Description: Inhibition of selective localization of nitrosamines (delocalization), general statement. The data set is classed as in vivo. From the text: The alcohols which are operable according to the invention include alcohols having two or more carbons. However, it is preferable to use alcohols having alkyl groups of at least three carbons or greater. The alkyl groups may have a straight-chain or branched chain structure. Moreover, the alkyl groups may have a cyclic or acyclic structure.

Another data set concerns F-344 rat esophagus. The settings on record: in contrast to other tissues; cited from earlier work.
In another data set the test system is rodents. The conditions noted are these: cited from earlier work; for carcinogenicity: N-nitroso derivatives of tobacco alkaloids.
A further data set deals with F-344 rats. The settings on record: NNN in drinking water; cited from earlier work.
A further data set has as its system tissues of the body. The conditions noted are these: [14C] NNN, adult male C57BL/6J mice; cited from earlier work.
For another data set, the system named is rats. The settings on record: cited from earlier work.
The nature of data set [2]: Whole-body autoradiography: localization of [14C] NNN radioactivity in bronchial epithelium after oral alcohol pretreatment. The format is in vivo, male C57BL/6J mice. The protocol:
(§1) One hour later, the mice were anesthetized lightly with ether and frozen by immersion in dry ice/hexane. Twenty u-thick whole-body sagittal sections of the frozen mice were taken onto Scotch tape and were then processed for whole-body autoradiography by known methods. See W. Waddell et al, Drug Fate and Metabolism: Methods and Techniques. E.R. Garrett and J.L. Hirtz, Eds. […] Photometric density in areas of the developed autoradiographs was measured with an ADG Instruments photometer and a photocell with an aperture of three mm lying on the easel of a photographic enlarger. The X-ray film was placed in the enlarger and raised to produce a magnification of thirty-five times on the easel.
(§2) NNN. […] (Twenty minutes is the average time it takes for alcohols introduced by oral intubation in mice to reach the peak blood level.)
(§3) The number within each bar thereof represents the dose in g/kg of the alcohol which was administered orally twenty minutes before the [^14 C] NNN was given intravenously. The mice were frozen one hour after receiving the [^14 C] NNN. The means for each mouse were from fifteen measurements on random areas of that site (five absorbancies on each of three autoradiographs) after setting blood in each on zero. The control value is the mean from six mice; the n-butanol at one g/kg is from two mice; and the other means are from one mouse.

A further data set relates to liver. The conditions noted are these: oral 20 min before i.v. [14C] NNN; ethanol 1 and 5 g/Kg, n- and t-butanol 0.2 and 1 g/Kg; 1 h. The protocol: as §1, §2, §3
The test system of a further data set is salivary duct epithelium. The conditions noted are these: oral 20 min before i.v. [14C] NNN; ethanol 1 and 5 g/Kg, n-butanol 0.2 and 1 g/Kg; 1 h. The protocol:
as §1, §2, §3

Data set [3] concerns malignant growth and tumor development. The conditions noted are these: cited from earlier work.
For another data set, the system named is epithelial membranes. The conditions noted are these: cited from earlier work.
In another data set the test system is bronchial epithelium. Description: Whole-body autoradiography of [14C] NNN after inhalation of cyclohexanol vapor. The settings on record: 5 min inhalation. The format is in vivo, C57BL/6J mouse. The protocol:
The mouse was kept in the closed beaker for about five minutes as the bottom of the beaker was maintained at 50° C. in a water bath. […] Handbook of Chemistry and Physics (1979) at D-203 to D-217, which is incorporated herein in its entirety.
One hour later, the mouse was anesthetized lightly by ether and frozen by immersion in dry ice/hexane. […] Control experiments were conducted for comparison purposes and radioactivity was detected in the respiratory epithelium in the controls.
Example 2 was duplicated, except that the mouse was kept in the closed beaker for five minutes as the bottom of the beaker was maintained at 20° C. in a water bath. […] After injection as in Example 2, the mouse was processed in the same manner as in Example 2.

Another data set relates to adult human. The conditions noted are these: per kg body weight; cited from earlier work.
The subject of data set [4] is nitrosamine localization. Description: Whole-body autoradiography of [14C] NNN after intraperitoneal imidazole. The conditions noted are these: 20 min before i.v. [14C] NNN, vs control mouse. The data set is classed as in vivo, male C57BL/6J mouse. The protocol: An adult male C57BL/6J mouse was injected intraperitoneally with 0.02 ml/g body weight of a solution of imidazole in water. The imidazole solution concentration was such that 0.05 g of imidazole was delivered per kg of body weight. […] See Example 1.
Example 4 was duplicated except that the adult mouse was injected intraperitoneally with 0.02 ml/g body weight of a solution of imidazole in water, wherein the solution concentration was such that 0.25 g of imidazole was delivered per kg of body weight.

For `CC1=C(/C=C/C(C)=C/C=C/C(C)=C/CO)C(C)(C)CCC1` [retinol, reference compound], the “inhibition of nitrosamine localization” value with nitrosamine localization [1] is listed as “does not inhibit nitrosamine localization”.
In the case of `O=NN1CCCC1c1cccnc1` (stereo not shown) [NNN, N'-Nitrosonoronicotine], the “hydroxylation at the a-carbon of NNN adjacent to the pyridine ring” value with F-344 rat esophagus is on record as “preferentially catalyzes hydroxylation at the a-carbon of NNN adjacent to the pyridine ring”. In the data set with rodents, the carcinogenicity entry is “powerful environmental carcinogens”. Also, the “sites of tumor formation” value in the data set with rodents (in vivo) was “typically induces tumor formation at five sites, namely the nasal cavity, salivary duct, esophagus, bronchial epithelium and the liver”. Besides, the “carcinogenesis in olfactory epithelium, lung, salivary glands” value in the data set with rodents (rodents) is reported as “known to induce carcinogenesis in the olfactory epithelium, lung, salivary glands”. The esophageal tumors entry in the data set with F-344 rats is reported as “esophageal tumors have been induced”. In addition, the “retention of radioactivity versus sites of tumor formation” value with tissues of the body is on record as “striking correlation of the retention of radioactivity with the previously reported sites of tumor formation”.
On to `CCCCC(CC)CO` (stereo not shown) [2-ethyl hexanol], for which the “Acute Oral LD50 rats” value in the data set with rats (rat, in vivo, po) is 3200 to 7100 mg/kg.
As to `c1cn[nH]c1` [pyrazole], the delocalization of nitrosamines result with nitrosamine localization [1] is reported as “found to delocalize nitrosamines”.
Turning to `CCO` [ethanol], the “localization of radioactivity in bronchial epithelium” value in data set [2] (oral 20 min before i.v. [14C] NNN, ethanol 1 and 5 g/Kg, n-butanol 0.2 and 1 g/Kg, 1 h) is listed as “reduced by pretreatment”. In addition, the “localization of radioactivity in periportal and central areas of the liver” value in the data set on liver is “reduced by pretreatment”. For the same molecule, the “localization of radioactivity in salivary duct epithelium” value in the data set on salivary duct epithelium was “reduced by pretreatment”.
On to `C[S+](C)[O-]` [dimethylsulfoxide (DMSO), dimethylsulfoxide], for which, in the data set on nitrosamine localization [1], the delocalization of nitrosamines entry is on record as “found to delocalize nitrosamines”.
Turning to `[Se]` [Selenium], in [3], the tumor development result is listed as “inhibit tumor development”.
Consider `[Cl-].[Na+]` [sodium chloride, reference compound], for which, in the data set with rats (acute oral, rats), the LD50 result is reported as “about 3.75 g/Kg”.
Consider Vitamin E, for which, in the data set on epithelial membranes, the “formation of nitrosamines on epithelial membranes” value is recorded as “prevent the formation of nitrosamines on epithelial membranes”.
As for Vitamin A, in data set [3], the malignant growth result was “suppress malignant growth”.
Consider `OC1CCCCC1` [cyclohexanol], for which the “radioactivity in bronchial epithelium” value in the data set on bronchial epithelium (20° C., 0.001% cyclohexanol in air) was “No radioactivity was detected in any part of the bronchial epithelium”; in the data set on bronchial epithelium (50° C., 0.01% cyclohexanol in air) it was “No radioactivity was detected in any part of the bronchial epithelium”.
Take `O=C1O[C@H]([C@@H](O)CO)C(O)=C1O` [Vitamin C]: the “formation of nitrosamines on epithelial membranes” value with epithelial membranes is reported as “prevent the formation of nitrosamines on epithelial membranes”.
As to `CC(C)(C)O` [t-butanol], the “inhibition in bronchial epithelium (FIG. 1), ranking” value in data set [2] (from inspection of FIG. 1, oral pretreatment) was “greatest inhibition”. Besides, the “localization of [14C] NNN in bronchial epithelium” value in data set [2] (high dosage (t-butanol 1 g/Kg oral), 20 min before i.v. [14C] NNN) is listed as “almost completely abolished”.
Take `CN(CCCC(=O)c1cccnc1)N=O` [NNK, 4-N-methyl-N-nitrosamino)-1-(3-pyridyo-1-butano]: in the data set on rodents, the carcinogenicity result is “powerful environmental carcinogens”.
For the molecule `S=C=NCc1ccccc1` [benzylisothiocyanate], the delocalization of nitrosamines result in the data set on nitrosamine localization [1] is given as “found to delocalize nitrosamines”.
Take `CN1CCCC1c1cccnc1` (stereo not shown) [nicotine]: the “estimated acutely fatal oral dose” value with adult human is recorded as 1 mg/kg.
For `c1c[nH]cn1` [imidazole], in the data set on nitrosamine localization [1], the delocalization of nitrosamines result is “found to delocalize nitrosamines”. Besides, the nitrosamine delocalization result with nitrosamine localization [4] (0.05 g/kg imidazole i.p.) is “Significant nitrosamine delocalization”. Further, the delocalization of nitrosamine result in the data set with nitrosamine localization [4] (0.25 g/kg imidazole i.p.) is “significant delocalization of nitrosamine”.
